Results from article PMC6326523, “A high-throughput screen to identify novel small molecule inhibitors of the Werner Syndrome Helicase-Nuclease (WRN)” (PLoS ONE, 2019).

Each compound was assayed against T1, full-length WRN helicase (Homo sapiens, UniProt Q14191) (assay: Radiometric helicase inhibitor assay, full-length WRN unwinding of FORKR DNA substrate). Details: 50 μM compound; full-length WRN 1 nM; FORKR 0.5 nM; read-out: % Control WRN Helicase Activity.
T1 construct: Full length recombinant WRN [18], BLM [19], and FANCJ [20] proteins were purified from insect cells; made in house; host or cells: insect cells
T1 sequence (Q14191 whole entry): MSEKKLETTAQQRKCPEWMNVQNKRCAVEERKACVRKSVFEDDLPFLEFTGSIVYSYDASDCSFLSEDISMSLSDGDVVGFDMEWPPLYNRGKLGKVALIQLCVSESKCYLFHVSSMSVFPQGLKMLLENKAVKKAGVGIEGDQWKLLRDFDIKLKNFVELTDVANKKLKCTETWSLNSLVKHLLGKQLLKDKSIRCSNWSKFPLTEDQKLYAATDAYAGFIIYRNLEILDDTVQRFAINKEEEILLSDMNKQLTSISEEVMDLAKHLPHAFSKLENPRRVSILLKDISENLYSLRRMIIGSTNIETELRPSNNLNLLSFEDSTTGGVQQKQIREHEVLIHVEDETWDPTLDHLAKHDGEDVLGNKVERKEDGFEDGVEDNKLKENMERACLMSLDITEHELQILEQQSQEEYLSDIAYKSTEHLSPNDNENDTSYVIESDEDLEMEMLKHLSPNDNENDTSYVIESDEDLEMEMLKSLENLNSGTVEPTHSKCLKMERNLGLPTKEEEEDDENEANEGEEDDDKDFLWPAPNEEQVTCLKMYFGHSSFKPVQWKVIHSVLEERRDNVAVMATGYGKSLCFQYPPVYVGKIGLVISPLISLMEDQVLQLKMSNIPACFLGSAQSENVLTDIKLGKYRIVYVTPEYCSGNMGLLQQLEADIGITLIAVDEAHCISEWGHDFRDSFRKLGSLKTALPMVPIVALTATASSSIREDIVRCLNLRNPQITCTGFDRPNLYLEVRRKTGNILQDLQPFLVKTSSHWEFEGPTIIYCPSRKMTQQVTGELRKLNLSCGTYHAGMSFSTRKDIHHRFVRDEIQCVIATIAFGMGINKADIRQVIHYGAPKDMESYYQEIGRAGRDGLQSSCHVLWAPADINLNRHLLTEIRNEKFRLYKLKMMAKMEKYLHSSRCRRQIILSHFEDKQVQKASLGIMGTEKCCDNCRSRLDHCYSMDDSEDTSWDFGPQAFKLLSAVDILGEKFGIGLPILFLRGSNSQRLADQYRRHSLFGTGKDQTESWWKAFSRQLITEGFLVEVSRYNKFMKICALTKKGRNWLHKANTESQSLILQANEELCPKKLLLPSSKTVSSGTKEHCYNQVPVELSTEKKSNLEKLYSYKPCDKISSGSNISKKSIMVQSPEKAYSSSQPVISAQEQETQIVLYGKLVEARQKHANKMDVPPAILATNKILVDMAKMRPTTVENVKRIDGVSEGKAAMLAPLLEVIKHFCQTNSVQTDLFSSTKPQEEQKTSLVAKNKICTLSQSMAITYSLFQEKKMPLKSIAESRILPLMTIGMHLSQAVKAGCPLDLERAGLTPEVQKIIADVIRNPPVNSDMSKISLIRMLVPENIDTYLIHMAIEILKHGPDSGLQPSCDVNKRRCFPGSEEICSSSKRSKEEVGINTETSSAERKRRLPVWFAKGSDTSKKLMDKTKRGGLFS
Type: biochemical
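Note: WRN preincubated with compound 15 min at room temperature, then unwinding run 15 min at 37 °C with 2 mM ATP, relative to WRN unwinding without compound (100%).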
Procedure: Fifteen μL of reaction buffer was added to a microcentrifuge tube followed by the addition of 1 μL of selected compounds (0.5–100 μM final concentration) or DMSO. One μL of WRN (full length), RECQ1, FANCJ, BLM or control was added to each reaction and incubated at room temperature for 15 min. Three μL of substrate (0.5 nM FORKR and 2 mM ATP final concentrations) were added to all reactions which were incubated at 37°C for 15 min. Reactions were stopped with the addition of 20 μL of 2X STOP dye containing EDTA, glycerol, bromphenol blue and xylene cyanol. Samples were electrophoresed for 1.5 hr at 200 V on a 12% non-denaturing PAGE gel in 1X TBE Buffer.
The compounds were tested at a single concentration of 50 μM in the radiometric helicase assay with full-length recombinant WRN protein (1 nM) and the FORKR DNA substrate (0.5 nM) as described in the Materials and Methods section.
For each compound, we performed titrations over a wide range of concentrations with a fixed concentration of full-length WRN protein (1 nM), and quantitated unwinding as a percentage of full-length WRN unwinding of the FORKR DNA substrate (0.5 nM) in the absence of compound (Fig 6A and 6B, S3 Fig). […] In addition to determining an IC50 value for each compound, we also conducted helicase assays to determine the reversibility of inhibition by each compound tested. […] The reaction was diluted 100-fold with the addition of DNA substrate (0.5 nM final concentration) and ATP (2 mM final concentration) and unwinding was measured (Fig 7A–7D, S4 Fig). Inhibition was either classified as reversible, partially reversible, minimally reversible, or irreversible based on the ability of helicase activity to recover after dilution of the compound 100-fold.

Question: Cc1nn(-c2ccccc2)c2nc(-c3ccco3)cc(C(=O)O)c12 [MLS000060726-02] was tested. Which remaining activity at 50 µM did it give?
Answer: 100%

Question: O=c1[nH]c2ccccc2n2c(-c3ccccc3)nnc12 [MLS000540817-03] was tested. Which remaining activity at 50 µM did it give?
Answer: 99%

Question: For Oc1ccc(C2=CSc3nnc(-c4ccco4)n3N2)cc1O [MLS000551562-03], which remaining activity at 50 µM is on record?
Answer: 92%

Question: For Cc1cc(OCC(=O)Nc2ccc(N3CCN(C(=O)c4ccco4)CC3)cc2)cc(C)c1Cl [MLS000582679-02], which remaining activity at 50 µM is on record?
Answer: 64%

Question: O=C(O)c1ccccc1-c1ccc(/C=C/c2cc(C(F)(F)F)nc(O)n2)o1 [MLS000715904-02] was tested. Which remaining activity at 50 µM did it give?
Answer: 76%

Question: Cc1ccc(C)c(NC(=O)CN(C)C(=O)c2cccc(-n3cccc3)c2)c1 [MLS001161412-02] was tested. Which remaining activity at 50 µM did it give?
Answer: 5%

Question: With CCc1nnc(NC(=O)c2cc(-c3ccc(C)o3)nc3ccccc23)s1 [MLS002179845-02] as the compound, how does the remaining activity at 50 µM read?
Answer: 93%

Question: With O=C(Nc1nncs1)c1cc(-c2ccco2)nc2ccccc12 [MLS002249549-02] as the compound, how does the remaining activity at 50 µM read?
Answer: 69%

Question: Oc1c(C(c2ccccc2)N2CCOCC2)ccc2ccccc12 (stereo not drawn) [MLS002694128-02] was tested. Which remaining activity at 50 µM did it give?
Answer: 0%

Question: How did the remaining activity at 50 µM turn out when CCCN(CCC)CCCNC(=O)c1cc2c(-c3ccc(OC)c(OC)c3)nn(C)c2s1 [NCGC00108865-03] was run?
Answer: 109%

Question: Which remaining activity at 50 µM does the source give for Cc1cc(OC(C)C(=O)Nc2cccc(-c3nc4ccccc4o3)c2)cc(C)c1Cl (stereo not drawn) [NCGC00119189-02] here?
Answer: 65%

Question: For COc1ccccc1N1CCN(C(=O)Cc2c(C(=O)O)c(C)cn2C)CC1 [NCGC00137902-02], which remaining activity at 50 µM is on record?
Answer: 113%

Question: With Cc1cn(C)c(CC(=O)N2CCN(c3ccccc3F)CC2)c1C(=O)O [NCGC00137904-02] as the compound, how does the remaining activity at 50 µM read?
Answer: 108%

Question: How did the remaining activity at 50 µM turn out when COc1ccc(N2CCN(C(=O)Cc3c(C(=O)O)c(C)cn3C)CC2)cc1 [NCGC00137930-02] was run?
Answer: 99%

Question: COc1ccc2nc(O)c(-c3noc(-c4cccs4)n3)cc2c1 [NCGC00307457-02] was tested. Which remaining activity at 50 µM did it give?
Answer: 42%

Same assay, conditions: read-out: % Control WRN Helicase Activity

Question: CN(C)CC(C(=O)Cc1ccccc1)c1ccccc1 (stereo not drawn) [MLS002608145-02] was tested. Which remaining activity at 50 µM did it give?
Answer: 93%

Question: For COc1ccc(-c2cc(C(F)(F)F)nc([S+](=O)([O-])CCC(=O)Nc3ccc(C)cc3)n2)cc1 [NCGC00317517-02], which remaining activity at 50 µM is on record?
Answer: 93%

Question: COc1ccc(N[S+](=O)([O-])c2cc(C(=O)Nc3ccc4nc(C)sc4c3)ccc2C)cc1 [NCGC00348187-01] was tested. Which remaining activity at 50 µM did it give?
Answer: 83%
